Assay results from PubChem BioAssay (NCI).
Values joined by “and” are separate entries in the source; they are usually repeats but may differ in a detail not shown here. Equal values may be shown once.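 Where inhibition never reached the appropriate level, the endpoint shown equals the highest concentration tested. Otherwise, values were interpolated linearly from a five-concentration, 48-hour dose response in 96-well plates. GI50 = concentration required for 50% inhibition of growth. The concentration for full growth arrest is given as TGI.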

Legend:
Experiment in all cases: DTP human tumour cell line panel, 48 h
NCI/ADR-RES ovarian = test system: NCI/ADR-RES ovarian
U251 CNS = test system: U251 CNS
HT29 colon = test system: HT29 colon
HS 578T breast = test system: HS 578T breast
OVCAR-8 ovarian = test system: OVCAR-8 ovarian
DU-145 prostate = test system: DU-145 prostate
CCRF-CEM leukemia = test system: CCRF-CEM leukemia
NCI-H226 lung = test system: NCI-H226 lung
T-47D breast = test system: T-47D breast
EKVX NSCLC = test system: EKVX NSCLC

SMILES	GI50 (NCI/ADR-RES ovarian)	TGI (NCI/ADR-RES ovarian)	GI50 (U251 CNS)	TGI (U251 CNS)	GI50 (HT29 colon)	TGI (HT29 colon)	GI50 (HS 578T breast)	TGI (HS 578T breast)	GI50 (OVCAR-8 ovarian)	TGI (OVCAR-8 ovarian)	GI50 (DU-145 prostate)	TGI (DU-145 prostate)	GI50 (CCRF-CEM leukemia)	TGI (CCRF-CEM leukemia)	GI50 (NCI-H226 lung)	TGI (NCI-H226 lung)	GI50 (T-47D breast)	TGI (T-47D breast)	GI50 (EKVX NSCLC)	TGI (EKVX NSCLC)
N#Cc1ccccc1C#C/C=C\C#Cc1cnccn1	4.32 µM	> 30.6 µM	30.5 µM	> 100 µM	8720 nM	> 100 µM	27.5 µM	> 93.1 µM	33.9 µM	98.4 µM	25 µM	> 100 µM	3090 nM	> 100 µM	26.6 µM	> 83.1 µM	> 66.3 µM	> 100 µM	44.1 µM	> 100 µM
O=C(/C=C/CN1CCCCC1)Nc1cc2c(Nc3ccc(F)c(Cl)c3F)ncnc2cc1OCCOC(F)F	0.446 µM	3.82 µM	1.87 µM	9.25 µM	919 nM	5.77 µM	0.873 µM	6.05 µM	0.805 µM	10.3 µM	0.265 µM	6.24 µM	2420 nM	10.7 µM	1.48 µM	5.73 µM	0.0535 µM	1.37 µM	0.0646 µM	5.22 µM
Cn1c(N)c(N=Nc2ccc(S(N)(=O)=O)cc2)c(=O)n(C)c1=O		> 100 µM		> 100 µM		> 100 µM		99.1 µM		> 100 µM		> 100 µM		> 100 µM		> 100 µM		> 100 µM		> 100 µM
CN1CCN(Cc2ccc(NC(=O)c3cncc(C#Cc4c(N)ncc5ccc(F)cc45)c3)cc2C(F)(F)F)CC1	1.89 µM	5.83 µM	1.05 µM	4 µM	126 nM	0.789 µM	0.512 µM	1.93 µM	1.76 µM	8.03 µM	1.45 µM	7.02 µM	553 nM	3.73 µM	0.4 µM	1.75 µM	23.8 µM	50 µM	2.83 µM	10.6 µM
Cn1cnc2nc(Cl)nc(Cl)c21	2.76 µM	13 µM	3.27 µM	11.7 µM	365 nM	12.6 µM	2.28 µM	7.53 µM	3.5 µM	26.2 µM	1.65 µM	4.87 µM	840 nM	22.1 µM	12.4 µM	31.4 µM	0.489 µM	26.8 µM	13.6 µM	34.8 µM
C=CC(=O)N1CC[C@@H](Oc2nc(Nc3ccc(N4CCC(N5CCN(C)CC5)CC4)cc3)c(C(N)=O)nc2CC)C1	> 100 µM	> 100 µM	> 100 µM	> 100 µM	> 100000 nM	> 100 µM	> 100 µM	> 100 µM	> 100 µM	> 100 µM	> 100 µM	> 100 µM	> 100000 nM	> 100 µM	> 100 µM	> 100 µM	> 100 µM	> 100 µM	> 100 µM	> 100 µM
N#Cc1c(-c2ccc(Cl)cc2)n([O-])c2ccccc2[n+]1=O	4.05 µM	16.1 µM	4.37 µM	17.1 µM	17200 nM	42.2 µM	24.6 µM	53.8 µM	9.68 µM	39 µM	18.1 µM	32.8 µM	2630 nM	8.2 µM	18.1 µM	46.7 µM	6.47 µM	25.8 µM	5.63 µM	20.5 µM
CN(C)CCCn1c2c(c3ccc([N+](=O)[O-])cc3c1=O)C(=O)c1ccccc1-2	7.22 µM	34.5 µM	6.36 µM	27.7 µM	3760 nM	21.3 µM	41.3 µM	> 100 µM	17 µM	49.4 µM	5.61 µM	29.8 µM	3850 nM	59 µM	6.82 µM	24 µM	24.1 µM	> 100 µM	84.9 µM	> 100 µM
CCN(CC)CCC(CNc1c2ccc(Cl)cc2nc2ccc(OC)cc12)c1ccccc1 (centres undefined)	1.28 µM	5.12 µM	1.56 µM	3.21 µM	219 nM	0.664 µM	1.95 µM	5.44 µM	1.26 µM	3.6 µM	1.32 µM	6.09 µM	1100 nM	5.17 µM	1.43 µM	4.99 µM	2.25 µM	4.96 µM	2.32 µM	8.3 µM
CN(C)c1ccc(/C=C/C(=O)c2ccc(Nc3nc(Nc4ccc(F)cc4)nc(Nc4ccc(Cl)cc4)n3)cc2)cc1	3.56 µM	33.4 µM	7.66 µM	70.6 µM	5180 nM	38.9 µM	4.12 µM	49.6 µM	1.99 µM	15.1 µM	5.5 µM	27 µM	2570 nM	9.44 µM	15.6 µM	> 100 µM	3.33 µM	45.2 µM	8.21 µM	> 100 µM
COc1ccc(-c2nccn2-c2cc(OC)c(OC)c(OC)c2)cc1	1.17 µM	22.2 µM	3.85 µM	> 100 µM	1050 nM	> 46.2 µM	8.9 µM	> 77.6 µM	12 µM	> 100 µM	13.1 µM	> 100 µM	8130 nM	> 100 µM	14.6 µM	> 100 µM	9.55 µM	> 100 µM	> 54.5 µM	> 100 µM
CCOC(=O)C(Cc1ccc(N(CCCl)CCCl)cc1)NC(=O)C(CC(C)C)NC(C)=O (centres undefined)	2.14 µM	16.9 µM	1.39 µM	8.13 µM	1280 nM	5.68 µM	2.55 µM	7.92 µM	1.02 µM	5.18 µM	0.472 µM	4.41 µM	232 nM	3.31 µM	3.79 µM	10.7 µM	0.642 µM	3.48 µM	5.95 µM	19.7 µM
CC(=O)OC1C(OC/C2=C/C3[C@@H](C(C)C)CC=C(C)[C@@H]3CC(OC(=O)/C=C/c3cn(C)cn3)[C@]3(C)C=C[C@@]2(O)O3)OCC(O)C1O (some centres undefined)	4.81 µM	> 39.4 µM	0.016 µM	> 30.3 µM	12.4 nM	> 50 µM	0.00831 µM	0.035 µM	0.0443 µM	> 50 µM	0.0155 µM	0.0475 µM	39.9 nM	> 50 µM		> 50 µM	0.0219 µM	> 50 µM	0.0707 µM	> 50 µM
COc1cc(OC)c(-c2oc3ccccc3c(=O)c2O)c(OC)c1		5.05 µM		> 100 µM		> 100 µM		24.2 µM		> 100 µM		> 100 µM		> 100 µM		> 100 µM		> 100 µM		> 100 µM
C=C1C(=O)O[C@H]2[C@H]1CC/C(Cn1cc(CNC(=O)c3cc4ccccc4[nH]3)nn1)=C\CC[C@@]1(C)O[C@@H]21	69.3 µM	> 100 µM	8.24 µM	21.8 µM	2850 nM	10.1 µM	19 µM	55.4 µM	4.69 µM	17.2 µM	4.07 µM	15.1 µM	527 nM	5.21 µM	2.57 µM	6.15 µM	3.55 µM	20.4 µM	13.2 µM	30.2 µM
CC(CCC/C=C/CCCN(C)C(=N)N)CC(C)C1OC(=O)C(C)C(O)/C=C/C(C)C(O)C(C)C(O)C(C)C(O)CCCC(O)CC2(O)OC(CC(OC(=O)CC(=O)O)CC(O)CC(O)C(C)C(O)/C=C/C=C/C1C)CC(O)C2O (centres undefined)	5.99 µM and 15.9 µg/mL	20.4 µM and 34.3 µg/mL	3.37 µM and 3.3 µg/mL	11.6 µM and 14.9 µg/mL	1.76 µM and 3 µg/mL	3.41 µM and 11.7 µg/mL	2.56 µM and 2.5 µg/mL	7.84 µM and 12.9 µg/mL	2.54 µM and 7.93 µg/mL	5.88 µM and 19.8 µg/mL	2.22 µM and 6.85 µg/mL	4.71 µM and 16 µg/mL	2700 nM	11 µM	6.21 µM and 14.1 µg/mL	24.2 µM and 26.9 µg/mL	1.81 µM and 2.63 µg/mL	4.44 µM and 11.9 µg/mL	3.41 µM and 6.84 µg/mL	12.6 µM and 16.8 µg/mL
